Laboratory results reported in patent US4973578A, “Synthetic peptides derived from the alpha-subunit of human lycoprotein hormones” (Mayo Foundation for Medical Education and Research, priority 1988, dated 1990).
Where “and” joins values, the source holds several entries; their conditions need not be identical. Identical values can stand only once. Residues, ends and D or L forms follow the SMILES beside them.

Tests used:
Assay type in all cases: cell-based, rat
[1] = test system: thyroid stimulating immunoglobulin (TSI) stimulated cAMP in FRTL-5 cells; assay: TSI bioassay: inhibition of thyroid stimulating immunoglobulin activity (PEG-precipitated patient immunoglobulin) in FRTL-5 cells; details: for Percent inhibition of TSI activity, mean: mean of patient samples tested
Source text: Ten patients (8 women and 2 men) with Graves' disease and high levels of TSI were identified after evaluation by FRTL-5 cell bioassay in the clinical chemistry laboratory. (FRTL-5 bioassay described below employing known TSH receptor recognition of various species hormones) Consecutive samples that had indices greater than 15 and sufficient serum remaining for further evaluation were chosen. Seven of the 10 had serum thyroxine values above the normal range and 9 of 10 had TSH levels below the euthyroid range by sensitive immunoradiometric assay [Boots-Celltech Sucrosep, Berkshire, UK, conducted as described in Klee and Hay, J. Clin. Endocrinol. Metab., 64:461 (1987)]. (FIG. 5). For comparison serum from 13 normal subjects was examined for TSI at the same serum dilution as the patient sera. (FIG. 5).
FRTL-5 cells were maintained in Ham's F-12 medium supplemented with 5% calf serum and a 6-hormone preparation (6H) as described by Ambesi-Impiombato, supra. The cells were removed from flasks enzymatically, plated at 150,000 cells per well in 24 well plates, and grown in 6H medium for 4 days. The medium was then replaced with fresh medium supplemented with insulin only (1H) for 7 days prior to assay. The bioassay was a modification of that described by Kasagi et al., supra. Briefly, immunoglobulins were precipitated from 2 ml of serum with 6 ml 20% polyethylene glycol 6000 (Baker, Phillipsburg, N.J.), centrifuged at 2800×g for 20 minutes, and then reconstituted in 2.4 ml buffer (NaCl-free Hanks balanced salt solution, NaCl-free HBSS), containing 1 mM iso-butyl-methyl-xanthine (IBMX, Sigma, St. Louis) and 1.5% BSA. After washing the cells with HBSS, 150 ul of buffer was added to the wells plus varying concentrations of synthetic α-subunit peptides followed immediately by 150 ul of the crude immunoglobulin extract. The plates were incubated for 2 hours at 37° C., 5% CO2 after which 100 ul of medium was removed and diluted in 900 ul 50 mM sodium acetate buffer, pH 6.2. cAMP content was determined by radioimmunoassay using the procedures described in Wray and Glinos, supra and Steiner et al., supra. Basal cAMP levels were determined in the absence of immunoglobulin extract and synthetic peptides for each plate. Basal and maximum levels were determined in quadruplicate; peptide effects were measured in duplicate at each concentration.
Percent increase in cAMP levels over basal was calculated as below: [formula]
Percent inhibition of TSI activity by the synthetic α-subunit peptides was calculated as follows: [formula]
cAMP levels in the presence of synthetic peptides were compared to maximum levels using student's T test for paired samples. Mean percent inhibition between different peptides were compared with student's T test for independent samples. Correlations were determined by Pearson's R.

[2] = test system: cAMP production (adenylate cyclase activity) in FRTL-5 cells; assay: TSH bioassay, cAMP stimulation in FRTL-5 cells; details: at least 2 separate assays
Procedure: (§1) FRTL-5 cells were maintained in Ham's F-12 medium supplemented with 5% calf serum and a 6 hormone preparation including 10 mU/ml bTSH as described by Ambesi-Impiombato et al., Proc. Natl. Acad. Sci. U.S.A., 77:3455 (1980), the disclosure of which is incorporated herein. For all assays herein described, the cells were plated in 24 well plates and grown for 3 days at 37° C. then maintained for 5-7 days in medium supplemented with 10 ug insulin alone prior to assay.
(§2) The bioassay was a modification of those previously described by Bidey et al, J. Endocrinol., 101:269 (1984); and Kasagi et al., ACTA Endocrinol., 115:30 (1987). To duplicate culture wells were added varying concentrations of test materials (see below) in a final volume of 300 ul of NaCl free HBSS with 0.5 mM iso-butyl-methyl-xanthine (IBMX, Sigma, St. Louis). In stimulation assays, only synthetic α-subunit peptides were added to the incubation medium. […] Basal cAMP levels were determined in the presence of HBSS and IBMX alone. In inhibition assays percent inhibition was calculated as follows: [formula]
The standard curve for TSH is shown in FIG. 3 and reports TSH deprived FRTL-5 cells incubated for 2 hrs. in buffer (NaCl-free HBSS, 200 mM sucrose, 0.5% BSA, 0.5 mM IBMX) with increasing concentrations of bTSH. cAMP released into the incubation media was measured by RIA. […]

[3] = test system: TSH mediated cAMP generation in FRTL-5 cells; assay: Inhibition of TSH mediated cAMP generation in FRTL-5 cells; details: 200 mU/L bTSH, 2 hrs 37° C.
Procedure: as §1
as §2, with “medium. For inhibition assays, the noted concentrations of synthetic α-subunit peptides were added immediately prior to the addition of 200 mU/L bTSH. The plates were incubated at 37° C. in 5% CO2 for 2 hrs then 100 ul of incubation medium was removed and diluted in 900 ul of 0.05M sodium acetate pH 6.2 and assayed for cAMP content by RIA in accordance with procedures described by Wray and Glinos, Am. J. Physiol., 234 (Cell Phisol. 3):C131(1978)); and Steiner et al., J. Biol. Chem., 247:1106 (1972).” for “medium.”
FIG. 4 reports data obtained for TSH deprived FRTL-5 cells incubated with a fixed amount of bTSH (200 mU/l) by itself or with various concentrations of synthetic peptides. cAMP content of medium was measured after 2 hrs. incubation at 37° C. Percent inhibition of cAMP generation was calculated as noted above.

SMILES: CSCC[C@H](NC(=O)[C@H](CS)NC(=O)[C@H](CCC(N)=O)NC(=O)[C@@H](N)CC(C)C)C(=O)NCC(=O)N[C@@H](CS)C(=O)N[C@@H](CS)C(=O)N[C@@H](Cc1ccccc1)C(=O)N[C@@H](CO)C(=O)N[C@@H](CCCNC(=N)N)C(=O)N[C@@H](C)C(=O)N[C@@H](Cc1ccc(O)cc1)C(=O)N1CCC[C@H]1C(=O)N[C@H](C(=O)N1CCC[C@H]1C(=O)N[C@@H](CC(C)C)C(=O)N[C@@H](CCCNC(=N)N)C(=O)N[C@@H](CO)C(=O)N[C@@H](CCCCN)C(=O)N[C@@H](CCCCN)C(=O)N[C@H](C(N)=O)[C@@H](C)O)[C@@H](C)O [α26-46, Leu--Gln--Cys--Met--Gly--Cys--Cys--Phe--Ser--Arg--Ala--Tyr--Pro--Thr--Pro--Leu--Arg--Ser--Lys--Lys--Thr--(NH2)] (H-LQCMGCCFSRAYPTPLRSKKT-NH2)
- patient samples in which peptide showed an inhibitory effect / lowered cAMP levels ([1]; Graves' disease patient samples): 10 of 10
- Percent inhibition of TSI activity ([1]; Pt. sample A, peptide 66.7 ug/ml): 62.1%
- Percent inhibition of TSI activity ([1]; Pt. sample A, peptide 133 ug/ml): 125.3±3% and 125.3%
- Percent inhibition of TSI activity ([1]; Pt. sample B, peptide 66.7 ug/ml): 14.3%
- Percent inhibition of TSI activity ([1]; Pt. sample B, peptide 133 ug/ml): 125.0%
- Percent inhibition of TSI activity ([1]; Pt. sample C, peptide 66.7 ug/ml): 29.1%
- Percent inhibition of TSI activity ([1]; Pt. sample C, peptide 133 ug/ml): 86.4%
- Percent inhibition of TSI activity ([1]; Pt. sample D, peptide 66.7 ug/ml): 9.1%
- Percent inhibition of TSI activity ([1]; Pt. sample D, peptide 133 ug/ml): 85.7%
- Percent inhibition of TSI activity ([1]; Pt. sample E, peptide 66.7 ug/ml): 42.0%
- Percent inhibition of TSI activity ([1]; Pt. sample E, peptide 133 ug/ml): 85.9%
- Percent inhibition of TSI activity ([1]; Pt. sample F, peptide 66.7 ug/ml): 19.8%
- Percent inhibition of TSI activity ([1]; Pt. sample F, peptide 133 ug/ml): 57.8%
- Percent inhibition of TSI activity ([1]; Pt. sample G, peptide 66.7 ug/ml): 43.1%
- Percent inhibition of TSI activity ([1]; Pt. sample G, peptide 133 ug/ml): 77.2%
- Percent inhibition of TSI activity ([1]; Pt. sample H, peptide 66.7 ug/ml): 14.7%
- Percent inhibition of TSI activity ([1]; Pt. sample H, peptide 133 ug/ml): 52.5%
- Percent inhibition of TSI activity ([1]; Pt. sample I, peptide 66.7 ug/ml): 4.2%
- Percent inhibition of TSI activity ([1]; Pt. sample I, peptide 133 ug/ml): 38±9.7% and 38.0%
- Percent inhibition of TSI activity ([1]; Pt. sample J, peptide 66.7 ug/ml): 36.0%
- Percent inhibition of TSI activity ([1]; Pt. sample J, peptide 133 ug/ml): 57.7%
- Percent inhibition of TSI activity, mean ([1]; peptide 66.7 ug/ml): 27.5%
- Percent inhibition of TSI activity, mean ([1]; peptide 133 ug/ml): 79.1±8.8% and 79.1%
- patient Ig samples with statistically significant inhibition of cAMP ([1]; peptide 133 ug/ml): 10
- stimulation of cAMP levels over basal by peptide alone, in words [2]: no ability to stimulate cAMP production
- percent inhibition of TSH mediated cAMP generation ([3]; peptide 33.3 ug/ml): 65.0±2.6% and 64.97%
- percent inhibition of TSH mediated cAMP generation ([3]; peptide 66.7 ug/ml): 95.6±3.1% and 95.62%
- percent inhibition of TSH mediated cAMP generation ([3]; peptide 133.3 ug/ml): 106±0.8% and 106.70%
